# Assay results published in ChEMBL document CHEMBL1135299, “Design, synthesis and biological activity of novel non-peptidyl endothelin converting enzyme inhibitors, 1-phenyl-tetrazole-formazan analogues” (Bioorg Med Chem Lett, 2002).
# pIC50: −log10 of the molar value.
# Molecular target: T1, Endothelin-converting enzyme 1 (Rattus norvegicus) (UniProt P42893)
# T1 sequence (whole entry): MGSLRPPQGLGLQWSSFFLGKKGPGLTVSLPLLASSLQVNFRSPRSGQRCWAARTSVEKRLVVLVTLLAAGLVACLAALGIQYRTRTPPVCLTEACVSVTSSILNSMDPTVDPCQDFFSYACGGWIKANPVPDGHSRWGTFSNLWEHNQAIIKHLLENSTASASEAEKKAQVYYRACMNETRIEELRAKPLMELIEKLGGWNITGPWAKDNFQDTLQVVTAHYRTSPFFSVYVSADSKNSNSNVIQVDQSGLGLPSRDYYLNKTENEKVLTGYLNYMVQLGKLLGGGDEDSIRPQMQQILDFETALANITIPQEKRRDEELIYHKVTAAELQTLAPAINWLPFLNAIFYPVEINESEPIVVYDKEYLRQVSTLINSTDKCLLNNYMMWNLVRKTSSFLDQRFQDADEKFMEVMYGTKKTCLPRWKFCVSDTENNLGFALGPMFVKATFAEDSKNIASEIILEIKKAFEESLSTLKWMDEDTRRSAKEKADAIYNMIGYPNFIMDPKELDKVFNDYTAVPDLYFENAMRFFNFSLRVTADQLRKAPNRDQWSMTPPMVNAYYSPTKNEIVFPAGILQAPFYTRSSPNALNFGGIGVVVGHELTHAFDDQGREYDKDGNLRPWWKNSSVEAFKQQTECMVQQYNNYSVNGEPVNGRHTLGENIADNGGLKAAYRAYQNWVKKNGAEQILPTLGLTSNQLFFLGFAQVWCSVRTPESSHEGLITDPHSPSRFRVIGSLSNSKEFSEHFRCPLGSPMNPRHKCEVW
# Test: Tested in vitro for percent inhibition of Endothelin-converting enzyme (ECE) of rat lung membrane at 10 uM
# Assay type: tissue-based
row,inhibition,Compound
1,37%,Clc1ccc(N/N=C(\N=N\c2nnnn2-c2ccccc2)c2ccccc2)cc1

# Molecular target: T2, Endothelin-converting enzyme 1 (Rattus norvegicus, UniProt P42893)
# T2 sequence (P42893 whole entry): T1 sequence (whole entry)
# Test: Tested in vitro for inhibition of Endothelin-converting enzyme (ECE) of rat lung membrane
# Assay type: tissue-based
row,pIC50,Compound
1,5.42,CCc1ccc(N/N=C(\N=N\c2nnnn2-c2ccccc2)c2ccccc2)cc1
2,5.08,Cc1ccc(N/N=C(\N=N\c2nnnn2-c2ccccc2)c2ccccc2)cc1
3,5.57,CCC(C)c1ccc(N/N=C(\N=N\c2nnnn2-c2ccccc2)c2ccccc2)cc1 (stereo not given)
4,5.00,c1ccc(N/N=C(\N=N\c2nnnn2-c2ccccc2)c2ccccc2)cc1
5,5.59,CCCc1ccc(N/N=C(\N=N\c2nnnn2-c2ccccc2)c2ccccc2)cc1
6,7.38,Cc1nn(-c2ccccc2)c(NC(=O)NS(=O)(=O)c2ccc(Cl)cc2)c1C#N
7,5.47,CC(C)c1ccc(N/N=C(\N=N\c2nnnn2-c2ccccc2)c2ccccc2)cc1
8,5.42,CC(C)(C)c1ccc(N/N=C(\N=N\c2nnnn2-c2ccccc2)c2ccccc2)cc1
9,5.44,c1ccc(C(=N/Nc2ccc(C3CCCCC3)cc2)/N=N/c2nnnn2-c2ccccc2)cc1
